Laboratory results published in patent publication US20250206732A1, “COMPOUNDS AND METHODS FOR THE TARGETED DEGRADATION OF KRAS” (Arvinas Operations, Inc., priority 2022, published 2025).

Target: T1, AsPC-1 HiBiT-KRASG12D (Homo sapiens, UniProt P01116, G12D)
T1 construct: insert the HiBiT tag onto the N-terminus of one or more of the endogenous KRAS alleles; endogenous in cells; host or cells: AsPC-1 (ATCC CRL-1682), CRISPR-Cas9 knock-in clone, one tagged allele
Test: HiBiT degradation assay (G12D), AsPC-1 HiBiT-KRASG12D cells
Assay type: cell-based
Settings: 24 hours treatment; for Dmax: ASPC1, AsPC-1 HiBiT-KRASG12D cells, maximum degradation observed; for DC50: AsPC-1 HiBiT-KRASG12D cells, HiBiT luminescence
How it was run: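 In this degradation format, an engineered AsPC-1 clone with HiBiT fused to the KRAS N-terminus is exposed to compounds for 24 hours, after which remaining tagged protein is quantified by lytic HiBiT luminescence.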

T1 sequence (P01116 1-188 isoform P01116-2 G12D): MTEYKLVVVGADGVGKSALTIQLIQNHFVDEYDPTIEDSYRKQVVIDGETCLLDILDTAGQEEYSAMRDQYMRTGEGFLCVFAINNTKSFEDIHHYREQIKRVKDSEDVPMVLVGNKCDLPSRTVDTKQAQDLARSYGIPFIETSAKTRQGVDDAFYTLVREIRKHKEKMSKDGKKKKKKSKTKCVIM

| SMILES | Dmax [%] | DC50 [nM] |
| --- | --- | --- |
| CCc1cccc2cc(O)cc(-c3ncc4c(N5CC6CCC(C5)N6)nc(OC[C@@]56CCCN5[C@H](COC(=O)N5CC(COc7cc([C@H](C(=O)N8C[C@H](O)C[C@H]8C(=O)N[C@@H](C)c8ccc(-c9scnc9C)cc8)C(C)C)on7)C5)CC6)nc4c3F)c12 [Compound 114, [(3S,7aS)-7a-{[(4-{3,8-diazabicyclo[3.2.1]octan-3-yl}-7-(8-ethyl-3-hydroxynaphthalen-1-yl)-8-fluoropyrido[4,3-d]pyrimidin-2-yl)oxy]methyl}-hexahydro-1H-pyrrolizin-3-yl]methyl 3-[({5-[(2R)-1-[(2S,4R)-4-hydroxy-2-{[(1S)-1-[4-(4-methyl-1,3-thiazol-5-yl)phenyl]ethyl]carbamoyl}pyrrolidin-1-yl]-3-methyl-1-oxobutan-2-yl]-1,2-oxazol-3-yl}oxy)methyl]azetidine-1-carboxylate] | 80 to 100 | < 600 |
| CCc1cccc2cc(O)cc(-c3ncc4c(N5CC6CCC(C5)N6)nc(OC[C@@]56CCCN5[C@H](COC(=O)N5CC(COc7cc([C@@H](C(=O)N8C[C@H](O)C[C@H]8C(=O)N[C@@H](C)c8ccc(-c9scnc9C)cc8)C(C)C)on7)C5)CC6)nc4c3F)c12 [Compound 115, [(3S,7aS)-7a-{[(4-{3,8-diazabicyclo[3.2.1]octan-3-yl}-7-(8-ethyl-3-hydroxynaphthalen-1-yl)-8-fluoropyrido[4,3-d]pyrimidin-2-yl)oxy]methyl}-hexahydro-1H-pyrrolizin-3-yl]methyl 3-[({5-[(2S)-1-[(2S,4R)-4-hydroxy-2-{[(1S)-1-[4-(4-methyl-1,3-thiazol-5-yl)phenyl]ethyl]carbamoyl}pyrrolidin-1-yl]-3-methyl-1-oxobutan-2-yl]-1,2-oxazol-3-yl}oxy)methyl]azetidine-1-carboxylate] | 20 to 60 | 600 to 1000 |
| CCc1cccc2cc(O)cc(-c3ncc4c(N5CC6CCC(C5)N6)nc(OC[C@]56CCCN5[C@H](COC(=O)N5CCC(Oc7cc([C@H](C(=O)N8C[C@H](O)C[C@H]8C(=O)N[C@@H](C)c8ccc(-c9scnc9C)cc8)C(C)C)on7)CC5)CC6)nc4c3F)c12 [Compound 116, [(3S,7aR)-7a-{[(4-{3,8-diazabicyclo[3.2.1]octan-3-yl}-7-(8-ethyl-3-hydroxynaphthalen-1-yl)-8-fluoropyrido[4,3-d]pyrimidin-2-yl)oxy]methyl}-hexahydro-1H-pyrrolizin-3-yl]methyl 4-({5-[(2R)-1-[(2S,4R)-4-hydroxy-2-{[(1S)-1-[4-(4-methyl-1,3-thiazol-5-yl)phenyl]ethyl]carbamoyl}pyrrolidin-1-yl]-3-methyl-1-oxobutan-2-yl]-1,2-oxazol-3-yl}oxy)piperidine-1-carboxylate] | 80 to 100 | < 600 |
| CCc1cccc2cc(O)cc(-c3ncc4c(N5CC6CCC(C5)N6)nc(OC[C@@]56CCCN5[C@H](COC(=O)N5CCC(Oc7cc([C@H](C(=O)N8C[C@H](O)C[C@H]8C(=O)N[C@@H](C)c8ccc(-c9scnc9C)cc8)C(C)C)on7)CC5)CC6)nc4c3F)c12 [Compound 117, [(3S,7aS)-7a-{[(4-{3,8-diazabicyclo[3.2.1]octan-3-yl}-7-(8-ethyl-3-hydroxynaphthalen-1-yl)-8-fluoropyrido[4,3-d]pyrimidin-2-yl)oxy]methyl}-hexahydro-1H-pyrrolizin-3-yl]methyl 4-({5-[(2R)-1-[(2S,4R)-4-hydroxy-2-{[(1S)-1-[4-(4-methyl-1,3-thiazol-5-yl)phenyl]ethyl]carbamoyl}pyrrolidin-1-yl]-3-methyl-1-oxobutan-2-yl]-1,2-oxazol-3-yl}oxy)piperidine-1-carboxylate] | 80 to 100 | < 600 |
| CCc1cccc2cc(O)cc(-c3ncc4c(N5CC6CCC(C5)N6)nc(OC[C@@]56CCCN5[C@H](COC(=O)N5CCC(Oc7cc([C@@H](C(=O)N8C[C@H](O)C[C@H]8C(=O)N[C@@H](C)c8ccc(-c9scnc9C)cc8)C(C)C)on7)CC5)CC6)nc4c3F)c12 [Compound 118, [(3S,7aS)-7a-{[(4-{3,8-diazabicyclo[3.2.1]octan-3-yl}-7-(8-ethyl-3-hydroxynaphthalen-1-yl)-8-fluoropyrido[4,3-d]pyrimidin-2-yl)oxy]methyl}-hexahydro-1H-pyrrolizin-3-yl]methyl 4-({5-[(2S)-1-[(2S,4R)-4-hydroxy-2-{[(1S)-1-[4-(4-methyl-1,3-thiazol-5-yl)phenyl]ethyl]carbamoyl}pyrrolidin-1-yl]-3-methyl-1-oxobutan-2-yl]-1,2-oxazol-3-yl}oxy)piperidine-1-carboxylate] | 20 to 60 | 600 to 1000 |
| CCc1cccc2cc(O)cc(-c3ncc4c(N5CC6CCC(C5)N6)nc(OC[C@]56CCCN5[C@H](COC(=O)N5CCC(Oc7cc([C@@H](C(=O)N8C[C@H](O)C[C@H]8C(=O)N[C@@H](C)c8ccc(-c9scnc9C)cc8)C(C)C)on7)CC5)CC6)nc4c3F)c12 [Compound 119, [(3S,7aR)-7a-{[(4-{3,8-diazabicyclo[3.2.1]octan-3-yl}-7-(8-ethyl-3-hydroxynaphthalen-1-yl)-8-fluoropyrido[4,3-d]pyrimidin-2-yl)oxy]methyl}-hexahydro-1H-pyrrolizin-3-yl]methyl 4-({5-[(2S)-1-[(2S,4R)-4-hydroxy-2-{[(1S)-1-[4-(4-methyl-1,3-thiazol-5-yl)phenyl]ethyl]carbamoyl}pyrrolidin-1-yl]-3-methyl-1-oxobutan-2-yl]-1,2-oxazol-3-yl}oxy)piperidine-1-carboxylate] | 20 to 60 | < 600 |
| CCc1cccc2cc(O)cc(-c3ncc4c(N5CC6CCC(C5)N6)nc(OC[C@]56CCCN5[C@H](COC(=O)N5CCN(c7cc([C@H](C(=O)N8C[C@H](O)C[C@H]8C(=O)N[C@@H](C)c8ccc(-c9scnc9C)cc8)C(C)C)on7)C[C@H]5C)CC6)nc4c3F)c12 [Compound 120, [(3S,7aR)-7a-{[(4-{3,8-diazabicyclo[3.2.1]octan-3-yl}-7-(8-ethyl-3-hydroxynaphthalen-1-yl)-8-fluoropyrido[4,3-d]pyrimidin-2-yl)oxy]methyl}-hexahydro-1H-pyrrolizin-3-yl]methyl (2R)-4-{5-[(2R)-1-[(2S,4R)-4-hydroxy-2-{[(1S)-1-[4-(4-methyl-1,3-thiazol-5-yl)phenyl]ethyl]carbamoyl}pyrrolidin-1-yl]-3-methyl-1-oxobutan-2-yl]-1,2-oxazol-3-yl}-2-methylpiperazine-1-carboxylate] | 80 to 100 | < 600 |
| CCc1cccc2cc(O)cc(-c3ncc4c(N5CC6CCC(C5)N6)nc(OC[C@]56CCCN5[C@H](COC(=O)N5CC(COc7cc([C@H](C(=O)N8C[C@H](O)C[C@H]8C(=O)N[C@@H](C)c8ccc(-c9scnc9C)cc8)C(C)C)on7)C5)CC6)nc4c3F)c12 [Compound 121, [(3S,7aR)-7a-{[(4-{3,8-diazabicyclo[3.2.1]octan-3-yl}-7-(8-ethyl-3-hydroxynaphthalen-1-yl)-8-fluoropyrido[4,3-d]pyrimidin-2-yl)oxy]methyl}-hexahydro-1H-pyrrolizin-3-yl]methyl 3-[({5-[(2R)-1-[(2S,4R)-4-hydroxy-2-{[(1S)-1-[4-(4-methyl-1,3-thiazol-5-yl)phenyl]ethyl]carbamoyl}pyrrolidin-1-yl]-3-methyl-1-oxobutan-2-yl]-1,2-oxazol-3-yl}oxy)methyl]azetidine-1-carboxylate] | 80 to 100 | < 600 |
| CCc1cccc2cc(O)cc(-c3ncc4c(N5CC6CCC(C5)N6)nc(OC[C@]56CCCN5[C@H](COC(=O)N5CC(COc7cc([C@@H](C(=O)N8C[C@H](O)C[C@H]8C(=O)N[C@@H](C)c8ccc(-c9scnc9C)cc8)C(C)C)on7)C5)CC6)nc4c3F)c12 [Compound 122, [(3S,7aR)-7a-{[(4-{3,8-diazabicyclo[3.2.1]octan-3-yl}-7-(8-ethyl-3-hydroxynaphthalen-1-yl)-8-fluoropyrido[4,3-d]pyrimidin-2-yl)oxy]methyl}-hexahydro-1H-pyrrolizin-3-yl]methyl 3-[({5-[(2S)-1-[(2S,4R)-4-hydroxy-2-{[(1S)-1-[4-(4-methyl-1,3-thiazol-5-yl)phenyl]ethyl]carbamoyl}pyrrolidin-1-yl]-3-methyl-1-oxobutan-2-yl]-1,2-oxazol-3-yl}oxy)methyl]azetidine-1-carboxylate] | 20 to 60 | 600 to 1000 |
| CCc1cccc2cc(O)cc(-c3ncc4c(N5CC6CCC(C5)N6)nc(OC[C@]56CCCN5[C@H](COC(=O)N5CCN(c7cc([C@H](C(=O)N8C[C@H](O)C[C@H]8C(=O)N[C@@H](C)c8ccc(-c9scnc9C)cc8)C(C)C)on7)[C@@H](C)C5)CC6)nc4c3F)c12 [Compound 123, [(3S,7aR)-7a-{[(4-{3,8-diazabicyclo[3.2.1]octan-3-yl}-7-(8-ethyl-3-hydroxynaphthalen-1-yl)-8-fluoropyrido[4,3-d]pyrimidin-2-yl)oxy]methyl}-hexahydro-1H-pyrrolizin-3-yl]methyl (3S)-4-{5-[(2R)-1-[(2S,4R)-4-hydroxy-2-{[(1S)-1-[4-(4-methyl-1,3-thiazol-5-yl)phenyl]ethyl]carbamoyl}pyrrolidin-1-yl]-3-methyl-1-oxobutan-2-yl]-1,2-oxazol-3-yl}-3-methylpiperazine-1-carboxylate] | 80 to 100 | < 600 |
